The results in this text go back to PubChem BioAssay (NCI).

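Cells were grown in 96-well plates and exposed to each compound for 48 hours at five concentrations; endpoints were interpolated linearly between bracketing concentrations, or set to the highest concentration if not reached. Abbreviation: GI50, concentration required for 50% inhibition of growth. Definition used: TGI = concentration required for complete inhibition of growth.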

Among the test systems are SNB-78 CNS; XF 498 CNS; BT-549 breast; MDA-N; NCI/ADR-RES ovarian; PC-3 prostate; T-47D breast.
What all share (assay): growth of human tumour cells (NCI), 48 h

Turning to `C/C(=N\NS(=O)(=O)c1ccccc1)c1ccc(Cl)c(Cl)c1`, the TGI in the experiment on SNB-78 CNS and with XF 498 CNS was greater than 100 µM each time.
In turn, `COC(=O)C(=O)C1(CCC(C)=O)c2ccccc2-c2c(C)ccc(C)c21` (stereo unspecified) returned a TGI in the experiment with SNB-78 CNS of 78.5 µM.
Take `O=C(/C=C/c1ccccc1)c1cc(Br)ccc1O`: the TGI was 33 µM in the experiment with BT-549 breast; 33.3 µM in the experiment with MDA-N; 34.9 µM in the experiment on NCI/ADR-RES ovarian; 33.7 µM in the experiment with PC-3 prostate; 25.5 µM in the experiment with T-47D breast.
Regarding `COc1ccc2nc(-c3cccs3)cc(C(O)CN3CCSCC3)c2c1` (stereo unspecified), in the experiment on XF 498 CNS, the TGI is 32.1 µM.
As for `N#C/C(=C\c1ccc(O)c(O)c1)C(N)=S`, the TGI in the experiment with SNB-78 CNS and in the experiment with XF 498 CNS was greater than 100 µM each time.
Take `O=C(CN1CCOCC1)Nc1nc(-c2ccc(Cl)cc2)cs1`: the values for the TGI in the experiment on SNB-78 CNS and in the experiment on XF 498 CNS were greater than 100 µM and 26.9 µM, respectively.
Regarding `CN(C)CCCNC(CC#N)CCC#N` (stereo unspecified), the TGI in the experiment on BT-549 breast, in the experiment with MDA-N, in the experiment on NCI/ADR-RES ovarian, in the experiment on PC-3 prostate and in the experiment on T-47D breast was greater than 10 µM throughout.
`CN(C)C(=O)OC(Cn1cncn1)c1ccc(Cl)cc1Cl` (stereo unspecified) showed a TGI in the experiment with SNB-78 CNS greater than 100 µM.
As for `Cc1c(C(=O)C/C(=N\O)C(=O)Nc2cc(Cl)c(Cl)cc2Cl)[n+](=O)c2ccccc2n1[O-]`, the TGI in the experiment on SNB-78 CNS is greater than 100 µM; in the experiment on XF 498 CNS, 46.8 µM.
Turning to `CC1OC(O[C@@H]2OC=C(C=O)[C@@]3(O)CC[C@H](C)[C@@H]23)C(O)C(O)C1O` (stereo partly specified), the TGI in the experiment with BT-549 breast, in the experiment with MDA-N, in the experiment with NCI/ADR-RES ovarian, in the experiment with PC-3 prostate and with T-47D breast was greater than 100 µM each time.
Turning to `CC1=Nc2ccccc2S/C1=C(/C)NNC(=O)C(N)=O`, the TGI in the experiment with SNB-78 CNS and in the experiment on XF 498 CNS was greater than 100 µM each time.
Regarding `Nn1c(NNC(=O)C(=O)Nc2cc(Cl)c(Cl)cc2Cl)n[nH]c1=S`, the TGI in the experiment with SNB-78 CNS and in the experiment on XF 498 CNS was greater than 100 µM throughout.
With `O=C(N/C(=C\c1ccc2c(c1)OCO2)c1nc2ccccc2[nH]1)c1ccccc1`, the figures for the TGI with SNB-78 CNS and in the experiment with XF 498 CNS were greater than 95.9 µM and 34 µM, respectively.
Regarding `COc1cccc(-n2ncc3c(N/N=C/c4ccc(C(=O)NCCN(C)C)cc4)ncnc32)c1`, the GI50 is 4.33 µM in the experiment on BT-549 breast, 5.25 µM with NCI/ADR-RES ovarian, 2.97 µM with PC-3 prostate and greater than 22.6 µM in the experiment on T-47D breast. Moreover, the TGI in the experiment on BT-549 breast is 8.1 µM; in the experiment on NCI/ADR-RES ovarian, 11.2 µM; in the experiment on PC-3 prostate, 6.47 µM; with T-47D breast, greater than 25 µM.
Take `CC1(C)CC(=O)c2c(C(F)(F)F)nn(-c3ccc(C(N)=O)c(NC4CCC(OC(=O)CN)CC4)c3)c2C1` (stereo unspecified): the GI50 was 5.24 µM in the experiment on BT-549 breast, 12.5 µM in the experiment on NCI/ADR-RES ovarian, 0.0688 µM with PC-3 prostate and 0.0461 µM in the experiment on T-47D breast. In addition, the TGI was 41.7 µM with BT-549 breast, greater than 100 µM with NCI/ADR-RES ovarian, greater than 100 µM in the experiment on PC-3 prostate and greater than 100 µM in the experiment on T-47D breast.
In the case of `O=C1CC(c2ccc(O)cc2)C2(O1)C(=O)OC(C(O)CO)C2O` (stereo unspecified), the TGI in the experiment with BT-549 breast, with NCI/ADR-RES ovarian, in the experiment on PC-3 prostate and with T-47D breast was greater than 100 µM throughout.
Regarding `COc1cc(C2CC(c3ccc4c(c3)OCO4)=NN2C=O)cc(OC)c1OC` (stereo unspecified), the GI50 is 5.21 µM with BT-549 breast, 1.13 µM in the experiment on NCI/ADR-RES ovarian, 4.92 µM in the experiment with PC-3 prostate and 3.34 µM with T-47D breast. Further, the TGI is greater than 100 µM in the experiment with BT-549 breast, greater than 20.1 µM in the experiment on NCI/ADR-RES ovarian, greater than 100 µM in the experiment on PC-3 prostate and greater than 100 µM in the experiment with T-47D breast.
Regarding `CC1SC2=NC3=C(c4ccccc4C3=O)C(c3ccc(F)cc3)N2C1=O` (stereo unspecified), the TGI in the experiment on XF 498 CNS was greater than 100 µM.
With `COC(=O)[C@H](C[C@H](Cc1ccccc1)NC(=O)c1csc([C@@H](C[C@H](C(C)C)N(C)C(=O)[C@@H](NC(=O)[C@H]2CCCCN2C)C(C)C)OC(C)=O)n1)NC(=O)OCc1ccccc1`, the GI50 was less than 0.0009 µM in the experiment on BT-549 breast, 0.0333 µM with NCI/ADR-RES ovarian, less than 0.0009 µM in the experiment with PC-3 prostate and less than 0.0009 µM with T-47D breast. Moreover, the TGI with BT-549 breast is 0.0689 µM; in the experiment with NCI/ADR-RES ovarian, 1.52 µM; in the experiment on PC-3 prostate, greater than 9 µM; in the experiment on T-47D breast, greater than 9 µM.
Turning to `CCCCCCCCN=C(N)c1ccc(N2CCN(c3ccc(C(N)=NCCCCCCCC)cc3)CC2)cc1`, the GI50 is 1.41 µM in the experiment with BT-549 breast, greater than 50 µM in the experiment on NCI/ADR-RES ovarian, 22.7 µM in the experiment with PC-3 prostate and 1.63 µM with T-47D breast. For the same compound, the TGI is 3.82 µM in the experiment on BT-549 breast, greater than 50 µM in the experiment on NCI/ADR-RES ovarian, greater than 50 µM with PC-3 prostate and 13.5 µM with T-47D breast.
`COc1cc(OC(C)=O)cc2c(OC(C)=O)ccc(OC(C)=O)c12` registered a TGI in the experiment with SNB-78 CNS greater than 100 µM.
For the compound `Nc1ccccc1C#C/C=C\C#Cc1cccs1`, the GI50 in the experiment with BT-549 breast was 12.2 µM; in the experiment on NCI/ADR-RES ovarian, 8.69 µM; with PC-3 prostate, 4.48 µM; in the experiment with T-47D breast it was 17.4 µM. For the same compound, the TGI worked out at 28.7 µM in the experiment with BT-549 breast, 27.7 µM in the experiment on NCI/ADR-RES ovarian, 27.3 µM in the experiment on PC-3 prostate and 48.2 µM in the experiment on T-47D breast.
In the case of `COc1ccc2c(c1)cn1c3ccc(O)cc3nc(N)c21`, the GI50 in the experiment with BT-549 breast is 4.72 µM; in the experiment with NCI/ADR-RES ovarian, 0.2 µM; with PC-3 prostate, 0.761 µM; in the experiment with T-47D breast, 2.34 µM. In addition, the TGI in the experiment on BT-549 breast amounted to 22.7 µM; with NCI/ADR-RES ovarian it was 3.33 µM; with PC-3 prostate, 13.4 µM; in the experiment with T-47D breast, 10.4 µM.
Regarding `COc1ccc(-c2ccc(/C=N/n3c(COc4ccc(Cl)cc4Cl)nn(CN4CCOCC4)c3=S)o2)c([N+](=O)[O-])c1`, the GI50 with BT-549 breast is 13.2 µM; with NCI/ADR-RES ovarian it was 21.1 µM; in the experiment on PC-3 prostate it was 18.6 µM; in the experiment with T-47D breast, 38.6 µM. For the same compound, the TGI in the experiment with BT-549 breast is 44.6 µM; in the experiment on NCI/ADR-RES ovarian it was 58.7 µM; in the experiment on PC-3 prostate it was 50.6 µM; in the experiment with T-47D breast it was greater than 100 µM.
For the compound `OC(c1cc(-c2ccccc2)nc2ccc(Cl)cc12)C1CCCCN1` (stereo unspecified), the GI50 is 5.82 µM in the experiment on BT-549 breast, 2.25 µM with NCI/ADR-RES ovarian, 2.21 µM in the experiment with PC-3 prostate and 2.51 µM in the experiment with T-47D breast. Also, the TGI stood at 18.7 µM in the experiment with BT-549 breast, 5.35 µM in the experiment with NCI/ADR-RES ovarian, 4.79 µM in the experiment with PC-3 prostate and 5.47 µM in the experiment on T-47D breast.
Turning to `O=C(O)/C=C\C(=O)N1C/C(=C\c2ccccc2Cl)C(=O)/C(=C/c2ccccc2Cl)C1`, the GI50 in the experiment on BT-549 breast is 2.06 µM; in the experiment on NCI/ADR-RES ovarian, 4.08 µM; in the experiment with PC-3 prostate it was 3.56 µM; in the experiment on T-47D breast it was 4.48 µM. Besides, the TGI in the experiment with BT-549 breast amounted to 4.11 µM; in the experiment on NCI/ADR-RES ovarian, 22.5 µM; in the experiment on PC-3 prostate it was 15.5 µM; in the experiment with T-47D breast, 16.2 µM.
For `CC#C[C@]1(O)CC[C@H]2[C@@H]3CCC4=CC(=O)CCC4=C3[C@@H](c3ccc4c(c3)OCO4)C[C@@]21C`, the GI50 with BT-549 breast is 22.3 µM; in the experiment with NCI/ADR-RES ovarian, 92.4 µM; in the experiment on PC-3 prostate it was 39.7 µM; with T-47D breast, 45.6 µM. The TGI with BT-549 breast was 122 µM; in the experiment on NCI/ADR-RES ovarian, greater than 1000 µM; in the experiment on PC-3 prostate, 340 µM; in the experiment on T-47D breast it was 577 µM.
For `O=c1cc(-c2ccccc2)[nH]c2ccccc12`, the values for the TGI in the experiment with BT-549 breast, with PC-3 prostate and in the experiment on T-47D breast were greater than 52.1 µM, greater than 100 µM and greater than 100 µM, respectively. Besides, the GI50 is 0.483 µM with NCI/ADR-RES ovarian, 0.403 µM with PC-3 prostate and 0.468 µM in the experiment on T-47D breast.
`COc1ccc(OC)c(NC(=O)C2=C(C)NC(C)=C(C(=O)Nc3cc(OC)ccc3OC)C2c2ccccc2)c1`: in the experiment on SNB-78 CNS, the TGI was greater than 100 µM.
For `CC(CCC(=O)O)[C@H]1CCC2[C@@H]3CC[C@@H]4CC(O)CC[C@]4(C)C3CC[C@@]21C` (stereo partly specified), the GI50 with BT-549 breast is 53.9 µM; in the experiment with MDA-N, 60.6 µM; in the experiment with NCI/ADR-RES ovarian it was 54.3 µM; in the experiment with PC-3 prostate it was 26.2 µM; in the experiment with T-47D breast, 33.7 µM. Also, the TGI with BT-549 breast is greater than 100 µM; in the experiment on MDA-N, greater than 100 µM; in the experiment with NCI/ADR-RES ovarian it was greater than 100 µM; in the experiment on PC-3 prostate, 72.3 µM; in the experiment on T-47D breast it was greater than 100 µM.
Turning to `C[C@@H]1C[C@H]2CC[C@H](O2)[C@H](C)C(=O)O[C@@H](C)C[C@@H]2CC[C@@H](O2)[C@@H](C)C(=O)O[C@H](C)C[C@H]2CC[C@H](O2)[C@H](C)C(=O)O[C@@H](C)C[C@@H]2CC[C@@H](O2)[C@@H](C)C(=O)O1`, the TGI is greater than 100 µM in the experiment on BT-549 breast; greater than 100 µM in the experiment on MDA-N; 21 µM in the experiment with NCI/ADR-RES ovarian; 2.46 µM in the experiment on PC-3 prostate; 0.857 µM with T-47D breast.
With `O=C1c2cccnc2C(=O)c2nc3cc(N4CCN(C5CC5)CC4)ccc3nc21`, the GI50 in the experiment on BT-549 breast is 1.04 µM; with NCI/ADR-RES ovarian, 1.95 µM; with PC-3 prostate, 1.97 µM; in the experiment with T-47D breast, 2.16 µM. In addition, the TGI came to 2.38 µM in the experiment with BT-549 breast, 8.14 µM in the experiment on NCI/ADR-RES ovarian, 23.2 µM with PC-3 prostate and 6.34 µM with T-47D breast.
